# Patent publication US10300070B2, “Metabolically-activated drug conjugates to overcome resistance in cancer therapy” (The Brigham and Women's Hospital, Inc., priority 2014, dated 2019)
# B1: catalase: an endogenous modulator of redox stress (protein, UniProt P04040 2-527, looked up)
# Catalase: ADSRDPASDQMQHWKEQRAAQKADVLTTGAGNPVGDKLNVITVGPRGPLLVQDVVFTDEMAHFDRERIPERVVHAKGAGAFGYFEVTHDITKYSKAKVFEHIGKKTPIAVRFSTVAGESGSADTVRDPRGFAVKFYTEDGNWDLVGNNTPIFFIRDPILFPSFIHSQKRNPQTHLKDPDMVWDFWSLRPESLHQVSFLFSDRGIPDGHRHMNGYGSHTFKLVNANGEAVYCKFHYKTDQGIKNLSVEDAARLSQEDPDYGIRDLFNAIATGKYPSWTFYIQVMTFNQAETFPFNPFDLTKVWPHKDYPLIPVGKLVLNRNPVNYFAEVEQIAFDPSNMPPGIEASPDKMLQGRLFAYPDTHRHRLGPNYLHIPVNCPYRARVANYQRDGPMCMQDNQGGAPNYYPNSFGAPEQQPSALEHSIQYSGEVRRFNTANDDNVTQVRAFYVNVLNEEQRKRLCENIAGHLKDAQIFIQKKAVKNFTEVHPDYGSHIQALLDKYNAEKPKNAIHTFVQSGSHLAAREKANL
# Assays:
# ROS (hydrogen peroxide) = conditions: 10-20 uM of paclitaxel; cited from earlier work
# [1] = system: 4T-1 mouse mammary carcinoma; assay type: in vivo, mice
# Experimental: Tumor volumes were assessed by the following formula: (Width×Width×length)/2 and values were utilized to calculate tumor specific growth rate (SGR) by the algorhythm (ln [V2/V1]/[t2−t1)] where V=volume and t=time in days^64.
# An in-vivo study was designed creating drug-schedules following successive doses of docetaxel at MTD or vehicle control in distinct groups. […] Finally, in effort to dissect the dosing-response of MADC vs. free drugs, a dose-titration of doxorubicin+PI103 or MADC in sequence with docetaxel was performed.
# mice = test: Systemic toxicity in treated 4T-1 tumor-bearing mice (hair and weight loss, spleen, heart caspase-3); assay type: in vivo
# Experimental: (§2) An in-vivo study was designed creating drug-schedules following successive doses of docetaxel at MTD or vehicle control in distinct groups. […] Finally, in effort to dissect the dosing-response of MADC vs. free drugs, a dose-titration of doxorubicin+PI103 or MADC in sequence with docetaxel was performed. […] Finally, a preliminary bio distribution study of the free doxorubicin or conjugate was performed on heterotopically-implanted 4T-1 syngeneic mammary carcninoma model. Mice were treated with 20 mg/kg equivalent of MADC or Doxorubicin or a vehicle control group (N=3 per group). […] Organ lysate was then centrifuged at 15,000 g and supernatant was filtered through a 0.2 mm filter syringe before aliquoted into quadruplicate wells of a 96-well plate. […] Autofluorescence determined from vehicle-treated control groups was subtracted from experimental groups and final fluorescence was determined as % arbitrary fluorescence units (AFU)/mg tissue as % increase from vehicle treated control values.
# [2] = 20 mg/kg equivalent, 24 h, heterotopic 4T-1 model
# Experimental: as §2
# MDA-MB-231 parent or DTC [3] = test: Cell viability (MTS) and trypan blue exclusion of parent or DTC treated with doxorubicin; assay type: cell-based; conditions: co-incubated with dox, 48 h
# Experimental: (§1) MDA-MB-231 (ATCC), MDA-MB-468 and 4T-1 mammary carcinoma cells (ATCC) were cultured in DMEM containing 10% Fetal Bovine Serum (FBS) at 37 C and 5% CO2. DU145 and DU145-TxR were provided by A. Mizokami^63 and cultured in DMEM containing 10% FBS, resistant line included 100 nM paclitaxel in the culture media. During treatments with chemotherapeutics, cells were grown to semi-confluence and treated with indicated concentrations of chemotherapy in serum-containing medium for indicated time points. When small molecule inhibitors were included in treatments, they were added simultaneously with chemotherapy. For siRNA gene knockdown, cells were transfected with silencer-select siRNA plasmids (Ambion, Invitrogen, Grand Island, N.Y.) pan-CD44(1) (s2682) panCD44(2) (s2681), siHIF1A (s6539) using lipofectamine 2000 (Invitrogen, Carlsbad Calif.) following manufacturer protocol and cultured for 72 hours prior to treatment. Scrambled siRNA was used as a control. For chemotherapy treatment experiments: Cancer cells were plated at a density of 0.5-1×10^5 cells/ml and allowed to adhere for 24-48 hr. When cells reached ˜70% confluency they were treated with cytotoxics at indicated concentrations for 24-48 hours and utilized for subsequent assays. For experiments in which a shorter incubation was used (i.e. 15 min-4 hours) fresh media was added 24 hours prior to addition of chemotherapy suspended to stock concentration in PBS. For generation of DTC: Cells were treated for 48 hours with chemotherapy. Following washes with PBS, adherent cells were trypsinized and re-plated at a density of 1.5-2×10^5 cells/ml and cultured in serum-containing medium. After 24 hours incubation, floating cells were removed and remaining cells were washed with 1× PBS and considered as chemotherapy-tolerant cells. A population of drug naïve parent cells were always cultured alongside DTC and fresh media was added at every interval that experimental population (DTC) received fresh media.
# Following drug incubation, cells were washed and suspended in phenol red-free RPMI or DMEM and subsequently treated with MTS reagent using manufacturer protocol (Promega, Madison, Wis.). Trypan blue exclusion was used to validate experiments and evaluate % of dead cells performed by bright field microscopy.
# [4] = system: explant tumor tissue from taxane-refractory breast cancer patients; test: Human refractory breast cancer explant model, glucose uptake; assay type: cell-based; conditions: chemotherapy in the presence of hexokinase inhibition, 72 h
# Experimental: Anonymous human breast cancer tissues (N=7) from patients refractory to taxane-containing regimens and varying stages of disease were obtained from Mitra Biotech collected under IRB approval from HCG Bangalore Institute of Oncology with due consent. Fresh tumor tissues were collected from breast cancer patients immediately after surgical resection at HCG cancer hospital, Bangalore, India. The tumor samples were transported to the laboratory at 4° C., in appropriate transport buffer within 60 minutes post-resection, for ex-vivo studies and molecular and pathological evaluation. Tissues were cut into thin sections and cultured in 96 well plate using optimized conditions[BISWANATH REF]. Tumors were treated with a taxane, or doxorubicin at Cmax for 72 h. DMSO was used as a vehicle control. After treatment, tumor cell viability was measured. Immunohistochemistry (IHC) was performed as described in methods. Glucose uptake was evaluated 72 h post culture.
# Glucose uptake assay was carried 72 hours post culture. Two micro liter of culture supernatant was added to 200 μl of Glucose reagent (Liquixx Glucose Reagent, Erbaa). All readings along with glucose standard (100 mg/dL) were run in triplicate. The plate was incubated at room temperature for 5 minutes on a plate shaker at medium speed and the absorbance was measured at 505 nm using multimode plate reader (Perkin Elmer).
# MDA-MB-231 parent or DTC [5] = test: Glucose uptake (2-NBDG) determined by FACS; assay type: cell-based; conditions: MDA-MB-231 DTC incubated with catalase for 6 hours
# Experimental: as §1
# In vitro detection of glucose uptake was performed using 2-(N-7-Nitrobenz-2-oxa-1,3-diazol-4-yl)Amino)-2-Deoxyglucose (2-NBDG) (Invitrogen, Carlsbad Calif.), dissolved in DMSO to 50 mM. Cells were pre-treated with kinase inhibitors or vehicle for 3 hours in glucose- and phenol red-free media before addition of 50 μM 2-NBDG and subsequently read by FACS ex/em 488/535 nm. ROS was determined by pre-loading cells with CM-DCFDA (1 μM), washed 2 times with PBS and subsequently treated with H2O2 or vehicle; when kinase inhibitors were included in treatment, cells were first incubated with inhibitor for 3 hours prior to CM-DCFDA loading. Fluorescence was then determined by FACS ex/em 488/535 nm. For the following assays, cells were trypsinized and counted by Nexcelom cell counter (Lawrence, Mass.) prior to being subjected to analysis in order to achieve a quantitative value per cell: Reduced glutathione was determined using a colorimetric glutathione recycling system by DTNB following manufacturer protocol (Biovision, Milpitas Calif.). ATP analysis was performed using the ATP colorimetric analysis kit (Biovision) according to manufacturer protocol. Reductive stress was detected using the Enzo nitroreductase hypoxia kit (Enzo Life Sciences, Ann Arbor Mich.) following manufacturer protocol and visualized by fluorescent microscopy; a set of non-docetaxel-treated control cells loaded with fluorescent probe were compared against docetaxel-treated cells to derive a % redox stress increase which was calculated as fluorescence intensity of nitroreductase probe per cell and expressed as increase from vehicle. Protein synthesis was measured by two means 1. L-azidohomoalanine amino acid analog of methionine containing an azide moiety was added to cultured cells (parent or DTC) for 3 hours which is incorporated into proteins during active protein synthesis. […]
# DTC = test: Total intracellular reduced glutathione (GSH) in drug tolerant cells; assay type: cell-based; conditions: acute (3 hours) exposure; ML-265 10 μM, catalase 2000 U/ml
# Experimental: In vitro detection of glucose uptake was performed using 2-(N-7-Nitrobenz-2-oxa-1,3-diazol-4-yl)Amino)-2-Deoxyglucose (2-NBDG) (Invitrogen, Carlsbad Calif.), dissolved in DMSO to 50 mM. Cells were pre-treated with kinase inhibitors or vehicle for 3 hours in glucose- and phenol red-free media before addition of 50 μM 2-NBDG and subsequently read by FACS ex/em 488/535 nm. ROS was determined by pre-loading cells with CM-DCFDA (1 μM), washed 2 times with PBS and subsequently treated with H2O2 or vehicle; when kinase inhibitors were included in treatment, cells were first incubated with inhibitor for 3 hours prior to CM-DCFDA loading. Fluorescence was then determined by FACS ex/em 488/535 nm. For the following assays, cells were trypsinized and counted by Nexcelom cell counter (Lawrence, Mass.) prior to being subjected to analysis in order to achieve a quantitative value per cell: Reduced glutathione was determined using a colorimetric glutathione recycling system by DTNB following manufacturer protocol (Biovision, Milpitas Calif.). […] Protein synthesis was measured by two means 1. […] Fluorescence was detected by FACS as described below. […] GFP protein translation was determined by fluorescent microscopy. […] Individual cells were evaluated for fluorescent intensity of caspase-3 activity (red signal intensity) and green fluorescent protein intensity. […]
molecule,measurement,setting,value
CC(=O)O[C@H]1C(=O)[C@@]2(C)[C@H]([C@H](OC(=O)c3ccccc3)[C@]3(O)C[C@H](OC(=O)[C@H](O)[C@@H](NC(=O)c4ccccc4)c4ccccc4)C(C)=C1C3(C)C)[C@]1(OC(C)=O)CO[C@@H]1C[C@@H]2O [paclitaxel],increase from basal ROS levels,ROS (hydrogen peroxide),3-5 ×
COc1cccc2c1C(=O)c1c(O)c3c(c(O)c1C2=O)C[C@@](O)(C(=O)COC(=O)NCCSSCCNC(=O)Oc1cccc(-c2nc(N4CCOCC4)c4oc5ncccc5c4n2)c1)CC3OC1C[C@@H](C)[C@@H](O)[C@@H](N)C1 (stereo partly drawn) [MADC],"tumor growth suppression, in sequence with docetaxel",[1]; given after successive doses of docetaxel at MTD,"elicited suppression of tumor growth, largely comparable to the combination of free drugs in similar sequence"
same,"tumor growth suppression, in sequence with vehicle",[1]; given after vehicle control,operated poorly to suppress tumor growth
same,"dose-titration, tumor growth, lower concentration","[1]; in sequence with docetaxel, 3 mg/kg",greater effect than free drug combination
same,"dose-titration, tumor growth, 5 mg/kg and 10 mg/kg","[1]; in sequence with docetaxel, 5 mg/kg and 10 mg/kg",saturating concentrations
same,systemic toxicity (toxic burden),mice; MADC vs. free drug combination groups,significant reduction of toxic burden
same,hair and weight loss and myelosuppression indicated by splenic miniaturization,mice; MADC-treated cohorts vs free drug combination,significantly attenuated
same,splenic miniaturization in dose-titration,"mice; lower concentration (3 mg/kg), in sequence with docetaxel",negligible
same,"cardiotoxicity (activated caspase-3, immunoblots of whole heart lysate)","mice; mouse, in vivo",lower indication of cardiotoxicity
same,biodistribution (organ accumulation by fluorescence),[2],greater concentration of the conjugate in the lung compared to the free drug administration
O=C(O)c1nn(Cc2ccc(Cl)cc2Cl)c2ccccc12 [Lonidamine],"response to dox in combination with inhibitor, DTC","MDA-MB-231 parent or DTC [3]; DTC, PI103 5 μM, lonidamine 10 μM, KB-458 and KB-697 10 μM","exquisitely responsive, overtly driven to cell death by dox in combination"
same,"response to dox in combination with inhibitor, parent cells",MDA-MB-231 parent or DTC [3]; drug naïve parent cells,little synergism or a reversion of synergy
same,glucose uptake of explant tumor tissue,[4],diminished capacity for glucose uptake
B1,glucose consumption (2NBDG uptake) in DTC,MDA-MB-231 parent or DTC [5],reduced potential for glucose consumption
same,total levels of reduced glutathione (GSH) in DTC,DTC,diminished total levels of reduced glutathione in DTC
